# Assay results taken from US20050250835A1, “Novel tumor-selective chemotherapeutic agents” (priority 2004, published 2005).
# Where two headings read alike, the source gives them in different places.
# What was measured:
# JC breast adenocarcinoma = JC breast adenocarcinoma in mice; type: in vivo, Balb/c mice
# Method: (§1) JC is an epithelial-like cell line established in 1983 from a spontaneous primary adenocarcinoma along the milk line (Capone et al., Cancer Immuno. Immunother. 1987, 25, 93-9). It produces tumors with papillary adenocarcinoma morphology in BALB/c mice. […] At the lowest dose of 0.16 mg/kg, (+)-YW-391 (LCK: 1.5) killed 10-times more tumor cells than Dox at 8 mg/kg (LCK: 0.78). (+)-YW-391 has the potential to be a powerful new treatment for human breast cancer.
# [1] = tested on: SKOV-3 human ovarian cancer; test: SKOV-3 human ovarian cancer xenograft; type: in vivo, CD1 nude mice
# Method: Ovarian cancer is one of the most difficult to treat human cancers, and very few drugs are effective. YW-391 had significant activity in SKOV-3 human ovarian cancer xenograft (FIG. 8 and Table 9). […] [table] treated animals. YW-391 and doxorubicin were administered iv., and paclitaxel was administered ip. Equivalents
# colon 38 adenocarcinoma = test: Colon 38 adenocarcinoma in mice; type: in vivo, BDF1 mice
# L1210 leukemia = L1210 leukemia tumor model in mice
# Method: The compounds were tested in male BDF1 mice (18-22 g, 6 mice/group) bearing L1210 leukemia cells. […] Diluted ascitic fluid (0.1 mL) containing 10^5 leukemia cells were inoculated, i.p. in mice on day 0.
# Lewis lung carcinoma = Lewis lung carcinoma in mice
# L1210 leukemia cells = test: Anticancer activity in vitro, 3H-thymidine incorporation; type: cell-based, murine; details: Mus musculus, 48-h proliferation assay, 3H-thymidine uptake, mean of two experiments
# Method: The antitumor activity of the compounds was evaluated in vitro against L1210 leukemia and human SKOV-3 ovarian cancer cells (Table 4). L1210 leukemia cells and SKOV-3 (2.5×10^4 cells/well) in RPMI-1640 medium supplemented with 10% FCS medium were seeded in a 96-well plate. Drugs (10 uL) at increasing concentrations were added to each well, and the total volume was adjusted to 0.1 mL/well using the same medium. For L1210 leukemia cells, the plate was incubated for 24 h at 37° C. followed by addition of 10 uL of ^3H-thymidine (20 uCi/mL). […] The plate was incubated for another 24 h. The cells were harvested, and radioactivity was counted using the Packard Matrix 96 beta counter. The results were expressed as the minimal concentration that inhibits ^3H-thymidine incorporation by 50% (IC50). Percent growth inhibition was calculated as follows: [(total cpm−experimental cpm)/total cpm]×100.
# various tumors = details: cited from earlier work
# various cancer cells = various cancer cells in vitro, 1 h exposure (Ghielmini et al. 1997); cited from earlier work
# [2] = one patient with liver cancer, 40 microg/m^2, one cycle (days 1-5); cited from earlier work
# endogenous albumin = molecular target: T1, endogenous albumin (Homo sapiens, UniProt P02768); details: human blood plasma; cited from earlier work
# T1 construct: selectivity of Dox-MH for endogenous albumin, Dox-MH was incubated with human blood plasma; from tissue; host or cells: human blood plasma
# T1 sequence (P02768 25-609): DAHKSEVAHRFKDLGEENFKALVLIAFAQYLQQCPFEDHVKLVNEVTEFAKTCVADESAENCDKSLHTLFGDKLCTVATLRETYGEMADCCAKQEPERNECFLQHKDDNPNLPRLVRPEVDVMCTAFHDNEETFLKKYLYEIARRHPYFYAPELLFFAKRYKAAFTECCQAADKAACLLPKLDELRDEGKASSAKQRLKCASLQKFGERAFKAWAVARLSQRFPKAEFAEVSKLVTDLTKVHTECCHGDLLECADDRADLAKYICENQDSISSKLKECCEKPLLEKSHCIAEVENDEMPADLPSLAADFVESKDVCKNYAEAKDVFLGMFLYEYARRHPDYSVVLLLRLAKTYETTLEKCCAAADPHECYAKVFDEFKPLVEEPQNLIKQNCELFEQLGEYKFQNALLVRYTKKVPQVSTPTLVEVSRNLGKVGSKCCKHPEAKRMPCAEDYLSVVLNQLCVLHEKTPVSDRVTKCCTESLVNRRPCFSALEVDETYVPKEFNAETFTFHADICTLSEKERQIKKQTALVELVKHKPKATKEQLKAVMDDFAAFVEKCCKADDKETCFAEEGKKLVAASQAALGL
# [3] = tested on: mouse renal RENCA, human breast cancers MDA-MB 435 and MCF-7; details: three animal tumor models; cited from earlier work
# HSA = HSA (Homo sapiens, UniProt P02768); details: exogenously added HSA; cited from earlier work
# Chain of HSA (P02768 25-609): as above
# [4] = tested on: MDA-MB 435 human breast cancer; details: cited from earlier work
# [5] = JC breast adenocarcinoma in mice; type: in vivo, Balb/c mice; details: BALB/c, mouse, in vivo, intravenous, 8 mg/kg; mice bearing JC
# Method: as §1
# [6] = 0.2 mg/kg i.v. on days 1, 5, 12
# [7] = 3.0 mg/kg i.v. on days 1, 5, 12
smiles,measurement,setting,value
O=C(CCCCCN1C(=O)C=CC1=O)Oc1cc2c(c3ccccc13)[C@H](CCl)CN2C(=O)c1cc2cc(NC(=O)c3cc4cc(F)ccc4[nH]3)ccc2[nH]1 [(+)-YW-391],tumor cells killed relative to Dox at 8 mg/kg,JC breast adenocarcinoma; 0.16 mg/kg (LCK 1.5) versus Dox 8 mg/kg (LCK 0.78),10 times
same,TGI,"JC breast adenocarcinoma; at MTD, dose not given",98%
same,% Maximum weight loss,"[1]; 0.13 mg/kg iv. on days 15, 24, 33",−3%
same,tumor cells killed relative to 5-FU at 70 mg/kg,colon 38 adenocarcinoma; 0.15 mg/kg (LCK 2.3) versus 5-FU 70 mg/kg (LCK 1.1),10 times
same,% Maximum weight loss,colon 38 adenocarcinoma; 0.3 mg/kg q4d × 2 i.v.,−25%
same,% ILS,L1210 leukemia; 0.05 mg/kg i.v. on day 1,40%
same,% ILS,L1210 leukemia; 0.1 mg/kg i.v. on day 1,51%
same,% Maximum weight loss,Lewis lung carcinoma; [6],−17%
same,Log10 cell kill (LCK),Lewis lung carcinoma; [6],0.75
same,TGIs,Lewis lung carcinoma; no dose given,98%
O=C(CCCCCN1C(=O)C=CC1=O)Oc1cc2c(c3ccccc13)[C@H](CCl)CN2C(=O)c1cc2cc(NC(=O)c3cc4ccccc4o3)ccc2[nH]1 [(+)-YW-392],IC50,L1210 leukemia cells,31 nM
"Cc1c[nH]c2c1[C@@]13C[C@@H]1CN(C(=O)c1cc4cc(NC(=O)c5cc6ccccc6o5)ccc4[nH]1)C3=CC2=O [Adozelesin, adozelesin]",antitumor activity in vivo,"various tumors; L1210 leukemia, B16 melanoma, M5076 sarcoma, colon 38, colon CX-1, lung LX-1, pancreas 02, ovarian 2780 in mice (Li et al. 1991)",very active
"Cc1c[nH]c2c(O)cc3c(c12)[C@H](CCl)CN3C(=O)c1cc2cc(NC(=O)Nc3ccc4[nH]c(C(=O)N5C[C@@H](CCl)c6c5cc(O)c5[nH]cc(C)c65)cc4c3)ccc2[nH]1 [Bizelesin, bizelesin]",antitumor activity in vivo,"various tumors; P388, L1210, B16, UACC-62, LOX IMVI, SK-MEL-3, CAKI-1, LX-1, Lewis lung, HT-29, colon 38, pancreas 02, MCF7, MX-1 (Carter et al. 1996)",effective
"CCN(CC)c1ccc2cc(C(=O)Nc3ccc4[nH]c(C(=O)N5C[C@@H](CCl)c6c5cc(OC(=O)Nc5ccccc5)c5[nH]cc(C)c65)cc4c3)oc2c1 [Carzelesin, carzelesin]",antitumor activity in vivo,various tumors; several colon adenocarcinomas and pediatric rhabdomyosarcomas (Houghton et al. 1995),effective
same,average IC70 value,various cancer cells,0.23 ng/mL
same,duration of partial remission,[2],8 months
same,regression of primary liver cancer,[2],50%
"N.N.[Cl][Pt][Cl] [Cisplatin, cisplatin]",% Maximum weight loss,Lewis lung carcinoma; [7],−13%
same,% Tumor growth inhibition,Lewis lung carcinoma; [7],74%
same,Log10 cell kill (LCK),Lewis lung carcinoma; [7],0.45
COc1cccc2c1C(=O)c1c(O)c3c(c(O)c1C2=O)C[C@@](O)(/C(CO)=N/NC(=O)CCCCCN1C(=O)C=CC1=O)C[C@@H]3O[C@H]1C[C@H](N)[C@H](O)[C@H](C)O1 [Dox-MH],time by which all of the Dox-MH had reacted,endogenous albumin,≤ 90 min
same,antitumor efficacy and toxicity versus free doxorubicin,[3],distinctly superior to free doxorubicin
same,time by which all of the Dox-MH had reacted,HSA,≤ 90 min
same,time within which majority of the Dox-MH reacted with HSA,HSA,≤ 5 min
same,body weight change,[4]; after 24 days of drug administration,did not produce an overall change in body weight
same,antitumor response,[4]; optimal dose 3×39.3 umol/kg (3×23 mg/kg),complete remissions
"COc1cccc2c1C(=O)c1c(O)c3c(c(O)c1C2=O)C[C@@](O)(C(=O)CO)C[C@@H]3O[C@H]1C[C@H](N)[C@H](O)[C@H](C)O1 [Doxorubicin, doxorubicin]",MTD,[5],8 mg/kg
same,% Maximum weight loss,JC breast adenocarcinoma; 8.0 mg/kg q4d × 3 i.v.,−25%
same,% Tumor growth inhibition,JC breast adenocarcinoma; 8.0 mg/kg q4d × 3 i.v.,82%
same,Log10 cell kill (LCK),JC breast adenocarcinoma; 8.0 mg/kg q4d × 3 i.v.,0.78
same,% Maximum weight loss,"[1]; 5 mg/kg iv. on days 15, 24, 33",−4%
same,% Tumor growth inhibition,"[1]; 5 mg/kg iv. on days 15, 24, 33",39%
same,% ILS,L1210 leukemia; 10.0 mg/kg i.v. on day 1,85%
same,antitumor response,[4]; free Dox,modest antitumor activity
same,body weight loss,[4]; treatment with free Dox,about 10%
COC(=O)c1c(C)[nH]c2c(OC(=O)N3CCN(C)CC3)cc3c(c12)[C@H](CBr)CN3C(=O)c1cc2cc(OC)c(OC)c(OC)c2[nH]1 [KW-2189],antitumor activity in vivo,"various tumors; P388, L1210, B16, colon 26, colon 38, LC-6, ST-4, ST-40, LI-7, PAN-02, MX-1 (Kobayashi et al. 1994)",active
"CC(=O)O[C@H]1C(=O)[C@@]2(C)[C@H]([C@H](OC(=O)c3ccccc3)[C@]3(O)C[C@H](OC(=O)[C@H](O)[C@@H](NC(=O)c4ccccc4)c4ccccc4)C(C)=C1C3(C)C)[C@]1(OC(C)=O)CO[C@@H]1C[C@@H]2O [Paclitaxel, paclitaxel]",% Maximum weight loss,"[1]; 25 mg/kg ip. on days 15, 24, 33",−1%
